Data taken from US10588317B2, “Isoxazoline-substituted benzamides and analogues as insecticides” (priority 2015, dated 2020).

Columns and labels:
Format in all cases: in vivo
Diabrotica balteata = Diabrotica balteata (corn root worm), sprayed maize sprouts; conditions: 96 h, application rate 200 ppm, L2 larvae, 4 days after infestation, read-out: effect in at least one of the two categories (mortality or growth inhibition)
Method in brief: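 Maize sprouts on agar sprayed with aqueous dilutions of DMSO stocks, dried, then infested with L2 larvae (6–10 per well). Mortality and growth inhibition scored against untreated controls 4 days after infestation, at 200 ppm application rate.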

Euschistus heros = Euschistus heros (neotropical brown stink bug), sprayed soybean leaves; conditions: 120 h, application rate 200 ppm, N2 nymphs, 5 days after infestation, read-out: effect in at least one of the two categories (mortality or growth inhibition)
Method in brief: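 Soybean leaves on agar sprayed with aqueous dilutions of DMSO stocks, dried, then infested with N2 nymphs. Mortality and growth inhibition scored against untreated samples 5 days after infestation; application rate 200 ppm.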

Myzus persicae = Myzus persicae (green peach aphid): feeding/contact activity; conditions: 144 h, application rate 200 ppm, aphid population of mixed ages, 6 days after infestation, read-out: mortality
Method: (§1) Sunflower leaf discs were placed onto agar in a 24-well microtiter plate and sprayed with aqueous test solutions prepared from 10'000 ppm DMSO stock solutions. After drying, the leaf discs were infested with an aphid population of mixed ages. The samples were assessed for mortality 6 days after infestation.

Plutella xylostella = Plutella xylostella (diamond back moth), artificial diet; conditions: 120 h, application rate 200 ppm, L2 larvae, 5 days after infestation, read-out: effect in at least one of the two categories (mortality or growth inhibition)
Method in brief: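 Artificial diet in 24-well plates treated with aqueous test solutions made from 10'000 ppm DMSO stocks, dried, then infested with L2 larvae (10 to 15 per well). Mortality and growth inhibition scored against untreated samples 5 days after infestation; activity cut-off at least 80% in either category at 200 ppm.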

Spodoptera littoralis [1] = test: Spodoptera littoralis (Egyptian cotton leaf worm), sprayed cotton leaf discs; conditions: foliar, 72 h, application rate 200 ppm, L1 larvae, 3 days after infestation, read-out: control (mortality, anti-feeding effect, growth inhibition)
Method in brief: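 Cotton leaf discs on agar sprayed with aqueous test solutions made from 10'000 ppm DMSO stock; after drying, infested with five L1 larvae. Mortality, anti-feeding and growth inhibition scored versus untreated samples 3 days after infestation; control counted when any category exceeds untreated.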

Spodoptera littoralis [2] = test: Spodoptera littoralis (Egyptian cotton leaf worm), uptake by lettuce roots from agar; conditions: 144 h, read-out: effect in at least one of the three categories (mortality, anti-feeding, or growth inhibition); for percent effect (mortality, anti-feeding or growth inhibition) at 12.5 ppm: test rate 12.5 ppm, eggs, 6 days after infestation
Method in brief: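 Compound from 10'000 ppm DMSO stocks was mixed into agar, and lettuce grew on it for 7 days to take it up via roots. Cut leaves were infested with Spodoptera eggs; mortality, anti-feedant effect and growth inhibition scored 6 days later versus untreated samples.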

Tetranychus urticae = Tetranychus urticae (two-spotted spider mite): feeding/contact activity; conditions: 192 h, application rate 200 ppm, mixed population (mobile stages), 8 days after infestation, read-out: mortality
Method: Bean leaf discs on agar in 24-well microtiter plates were sprayed with aqueous test solutions prepared from 10'000 ppm DMSO stock solutions. After drying the leaf discs were infested with a mite population of mixed ages. The samples were assessed for mortality on mixed population (mobile stages) 8 days after infestation.

Thrips tabaci = Thrips tabaci (onion thrips): feeding/contact activity; conditions: 144 h, application rate 200 ppm, Thrips population of mixed ages, 6 days after infestation, read-out: mortality
Method: as §1, with “on” for “onto”, “in” for “in a”, “plates” for “plate”, “drying” for “drying,”, “a Thrips” for “an aphid”

Cc1cc(C2=NO[C@@](c3cc(Cl)cc(Cl)c3)(C(F)(F)F)C2)ccc1C(=O)NC1CON(S(C)(=O)=O)C1 (stereo partly drawn) [Compound A40]
≥ 80%: percent effect (mortality or growth inhibition) at 200 ppm (Diabrotica balteata) | percent effect (mortality or growth inhibition) at 200 ppm (Euschistus heros) | mortality at 200 ppm (Myzus persicae) | percent effect (mortality or growth inhibition) at 200 ppm (Plutella xylostella) | mortality at 200 ppm (Spodoptera littoralis [1]) | percent control (mortality, anti-feedant effect or growth inhibition) at 12.5 ppm (Spodoptera littoralis [2]) | mortality at 200 ppm (Tetranychus urticae) | mortality at 200 ppm (Thrips tabaci)

Cc1cc(C2=NO[C@@](c3cc(Cl)cc(Cl)c3)(C(F)(F)F)C2)ccc1C(=O)NC1CON(S(=O)(=O)N(C)C)C1 (stereo partly drawn) [Compound A41]
≥ 80%: percent effect (mortality or growth inhibition) at 200 ppm (Diabrotica balteata) | percent effect (mortality or growth inhibition) at 200 ppm (Euschistus heros) | mortality at 200 ppm (Myzus persicae) | percent effect (mortality or growth inhibition) at 200 ppm (Plutella xylostella) | mortality at 200 ppm (Spodoptera littoralis [1]) | percent control (mortality, anti-feedant effect or growth inhibition) at 12.5 ppm (Spodoptera littoralis [2]) | mortality at 200 ppm (Tetranychus urticae) | mortality at 200 ppm (Thrips tabaci)

CCS(=O)(=O)N1CC(NC(=O)c2ccc(C3=NO[C@@](c4cc(Cl)cc(C(F)(F)F)c4)(C(F)(F)F)C3)cc2C)CO1 (stereo partly drawn) [Compound A42]
≥ 80%: percent effect (mortality or growth inhibition) at 200 ppm (Diabrotica balteata) | percent effect (mortality or growth inhibition) at 200 ppm (Euschistus heros) | mortality at 200 ppm (Myzus persicae) | percent effect (mortality or growth inhibition) at 200 ppm (Plutella xylostella) | mortality at 200 ppm (Spodoptera littoralis [1]) | percent control (mortality, anti-feedant effect or growth inhibition) at 12.5 ppm (Spodoptera littoralis [2]) | mortality at 200 ppm (Tetranychus urticae) | mortality at 200 ppm (Thrips tabaci)

CCS(=O)(=O)N1CC(NC(=O)c2ccc(C3=NO[C@@](c4cc(Cl)c(F)c(Cl)c4)(C(F)(F)F)C3)cc2Br)CO1 (stereo partly drawn) [Compound A44, 2-bromo-4-[(5S)-5-(3,5-dichloro-4-fluoro-phenyl)-5-(trifluoromethyl)-4H-isoxazol-3-yl]-N-(2-ethylsulfonylisoxazolidin-4-yl)benzamide]
≥ 80%: percent effect (mortality or growth inhibition) at 200 ppm (Diabrotica balteata) | percent effect (mortality or growth inhibition) at 200 ppm (Euschistus heros) | mortality at 200 ppm (Myzus persicae) | percent effect (mortality or growth inhibition) at 200 ppm (Plutella xylostella) | mortality at 200 ppm (Spodoptera littoralis [1]) | percent control (mortality, anti-feedant effect or growth inhibition) at 12.5 ppm (Spodoptera littoralis [2]) | mortality at 200 ppm (Tetranychus urticae) | mortality at 200 ppm (Thrips tabaci)

Cc1cc(C2=NOC(c3cc(Cl)c(Br)c(Cl)c3)(C(F)(F)F)C2)ccc1C(=O)NC1CON(S(C)(=O)=O)C1 (stereo not drawn) [Compound A45]
≥ 80%: percent effect (mortality or growth inhibition) at 200 ppm (Diabrotica balteata) | percent effect (mortality or growth inhibition) at 200 ppm (Euschistus heros) | mortality at 200 ppm (Myzus persicae) | percent effect (mortality or growth inhibition) at 200 ppm (Plutella xylostella) | mortality at 200 ppm (Spodoptera littoralis [1]) | percent control (mortality, anti-feedant effect or growth inhibition) at 12.5 ppm (Spodoptera littoralis [2]) | mortality at 200 ppm (Tetranychus urticae) | mortality at 200 ppm (Thrips tabaci)

Cc1cc(C2=NOC(c3cc(C(F)(F)F)cc(C(F)(F)F)c3)(C(F)(F)F)C2)ccc1C(=O)NC1CON(S(C)(=O)=O)C1 (stereo not drawn) [Compound A59]
≥ 80%: percent effect (mortality or growth inhibition) at 200 ppm (Diabrotica balteata) | percent effect (mortality or growth inhibition) at 200 ppm (Euschistus heros) | mortality at 200 ppm (Myzus persicae) | percent effect (mortality or growth inhibition) at 200 ppm (Plutella xylostella) | mortality at 200 ppm (Spodoptera littoralis [1]) | percent control (mortality, anti-feedant effect or growth inhibition) at 12.5 ppm (Spodoptera littoralis [2]) | mortality at 200 ppm (Tetranychus urticae) | mortality at 200 ppm (Thrips tabaci)

Cc1cc(C2=NOC(c3cc(Cl)c(Cl)c(Cl)c3)(C(F)(F)F)C2)ccc1C(=O)NC1CON(S(C)(=O)=O)C1 (stereo not drawn) [Compound A61]
≥ 80%: percent effect (mortality or growth inhibition) at 200 ppm (Diabrotica balteata) | percent effect (mortality or growth inhibition) at 200 ppm (Euschistus heros) | mortality at 200 ppm (Myzus persicae) | percent effect (mortality or growth inhibition) at 200 ppm (Plutella xylostella) | mortality at 200 ppm (Spodoptera littoralis [1]) | percent control (mortality, anti-feedant effect or growth inhibition) at 12.5 ppm (Spodoptera littoralis [2]) | mortality at 200 ppm (Tetranychus urticae) | mortality at 200 ppm (Thrips tabaci)

Cc1cc(C2=NOC(c3cc(Cl)cc(C(F)(F)F)c3)(C(F)(F)F)C2)ccc1C(=O)NC1CON(S(C)(=O)=O)C1 (stereo not drawn) [Compound A62]
≥ 80%: percent effect (mortality or growth inhibition) at 200 ppm (Diabrotica balteata) | percent effect (mortality or growth inhibition) at 200 ppm (Euschistus heros) | mortality at 200 ppm (Myzus persicae) | percent effect (mortality or growth inhibition) at 200 ppm (Plutella xylostella) | mortality at 200 ppm (Spodoptera littoralis [1]) | percent control (mortality, anti-feedant effect or growth inhibition) at 12.5 ppm (Spodoptera littoralis [2]) | mortality at 200 ppm (Tetranychus urticae) | mortality at 200 ppm (Thrips tabaci)

Cc1cc(C2=NOC(c3cc(Cl)c(F)c(Cl)c3)(C(F)(F)F)C2)ccc1C(=O)NC1CON(S(C)(=O)=O)C1 (stereo not drawn) [Compound A63]
≥ 80%: percent effect (mortality or growth inhibition) at 200 ppm (Diabrotica balteata) | percent effect (mortality or growth inhibition) at 200 ppm (Euschistus heros) | mortality at 200 ppm (Myzus persicae) | percent effect (mortality or growth inhibition) at 200 ppm (Plutella xylostella) | mortality at 200 ppm (Spodoptera littoralis [1]) | percent control (mortality, anti-feedant effect or growth inhibition) at 12.5 ppm (Spodoptera littoralis [2]) | mortality at 200 ppm (Tetranychus urticae) | mortality at 200 ppm (Thrips tabaci)

Cc1cc(C2=NOC(c3cc(Cl)cc(Cl)c3)(C(F)(F)Cl)C2)ccc1C(=O)NC1CON(S(C)(=O)=O)C1 (stereo not drawn) [Compound A64]
≥ 80%: percent effect (mortality or growth inhibition) at 200 ppm (Diabrotica balteata) | percent effect (mortality or growth inhibition) at 200 ppm (Euschistus heros) | mortality at 200 ppm (Myzus persicae) | percent effect (mortality or growth inhibition) at 200 ppm (Plutella xylostella) | mortality at 200 ppm (Spodoptera littoralis [1]) | percent effect (mortality, anti-feeding or growth inhibition) at 12.5 ppm (Spodoptera littoralis [2]) | mortality at 200 ppm (Tetranychus urticae) | mortality at 200 ppm (Thrips tabaci)

C=Cc1cc(C2=NOC(c3cc(Cl)cc(Cl)c3)(C(F)(F)F)C2)ccc1C(=O)NC1CON(S(C)(=O)=O)C1 (stereo not drawn) [Compound A65]
≥ 80%: percent effect (mortality or growth inhibition) at 200 ppm (Diabrotica balteata) | percent effect (mortality or growth inhibition) at 200 ppm (Euschistus heros) | mortality at 200 ppm (Myzus persicae) | percent effect (mortality or growth inhibition) at 200 ppm (Plutella xylostella) | mortality at 200 ppm (Spodoptera littoralis [1]) | percent control (mortality, anti-feedant effect or growth inhibition) at 12.5 ppm (Spodoptera littoralis [2]) | mortality at 200 ppm (Tetranychus urticae) | mortality at 200 ppm (Thrips tabaci)

Cc1cc(C2=NOC(c3ccc(Cl)c(Cl)c3)(C(F)(F)F)C2)ccc1C(=O)NC1CON(S(C)(=O)=O)C1 (stereo not drawn) [Compound A66]
≥ 80%: percent effect (mortality or growth inhibition) at 200 ppm (Diabrotica balteata) | percent effect (mortality or growth inhibition) at 200 ppm (Euschistus heros) | mortality at 200 ppm (Myzus persicae) | percent effect (mortality or growth inhibition) at 200 ppm (Plutella xylostella) | mortality at 200 ppm (Spodoptera littoralis [1]) | percent effect (mortality, anti-feeding or growth inhibition) at 12.5 ppm (Spodoptera littoralis [2]) | mortality at 200 ppm (Tetranychus urticae) | mortality at 200 ppm (Thrips tabaci)

CNS(=O)(=O)N1C[C@@H](NC(=O)c2ccc(C3=NO[C@@](c4cc(Cl)c(Cl)c(Cl)c4)(C(F)(F)F)C3)cc2C)CO1 [Compound A67, 2-methyl-N-[(4R)-2-(methylsulfamoyl)isoxazolidin-4-yl]-4-[(5S)-5-(3,4,5-trichlorophenyl)-5-(trifluoromethyl)-4H-isoxazol-3-yl]benzamide]
≥ 80%: percent effect (mortality or growth inhibition) at 200 ppm (Diabrotica balteata) | percent effect (mortality or growth inhibition) at 200 ppm (Euschistus heros) | mortality at 200 ppm (Myzus persicae) | percent effect (mortality or growth inhibition) at 200 ppm (Plutella xylostella) | mortality at 200 ppm (Spodoptera littoralis [1]) | percent control (mortality, anti-feedant effect or growth inhibition) at 12.5 ppm (Spodoptera littoralis [2]) | mortality at 200 ppm (Tetranychus urticae) | mortality at 200 ppm (Thrips tabaci)

Cc1cc(C2=NO[C@@](c3cc(Cl)c(Cl)c(Cl)c3)(C(F)(F)F)C2)ccc1C(=O)N[C@H]1CON(S(N)(=O)=O)C1 [Compound A68, 2-methyl-N-[(4R)-2-sulfamoylisoxazolidin-4-yl]-4-[(5S)-5-(3,4,5-trichlorophenyl)-5-(trifluoromethyl)-4H-isoxazol-3-yl]benzamide]
≥ 80%: percent effect (mortality or growth inhibition) at 200 ppm (Diabrotica balteata) | percent effect (mortality or growth inhibition) at 200 ppm (Euschistus heros) | mortality at 200 ppm (Myzus persicae) | percent effect (mortality or growth inhibition) at 200 ppm (Plutella xylostella) | mortality at 200 ppm (Spodoptera littoralis [1]) | percent control (mortality, anti-feedant effect or growth inhibition) at 12.5 ppm (Spodoptera littoralis [2]) | mortality at 200 ppm (Tetranychus urticae) | mortality at 200 ppm (Thrips tabaci)

CNS(=O)(=O)N1CC(NC(=O)c2ccc(C3=NO[C@@](c4cc(Cl)c(Cl)c(Cl)c4)(C(F)(F)F)C3)cc2C)CO1 (stereo partly drawn) [Compound A69, 2-methyl-N-[2-(methylsulfamoyl)isoxazolidin-4-yl]-4-[(5S)-5-(3,4,5-trichlorophenyl)-5-(trifluoromethyl)-4H-isoxazol-3-yl]benzamide]
≥ 80%: percent effect (mortality or growth inhibition) at 200 ppm (Diabrotica balteata) | percent effect (mortality or growth inhibition) at 200 ppm (Euschistus heros) | mortality at 200 ppm (Myzus persicae) | percent effect (mortality or growth inhibition) at 200 ppm (Plutella xylostella) | mortality at 200 ppm (Spodoptera littoralis [1]) | percent control (mortality, anti-feedant effect or growth inhibition) at 12.5 ppm (Spodoptera littoralis [2]) | mortality at 200 ppm (Tetranychus urticae) | mortality at 200 ppm (Thrips tabaci)
